# Source: ChEMBL document CHEMBL1671627, “Increasing trends in antimicrobial resistance among clinically important anaerobes and Bacteroides fragilis isolates causing nosocomial infections: emerging resistance to carbapenems” (2008)
# How the values were obtained:
# Clostridium tertium [1] = assay: Antibacterial activity against beta-lactamase producing Clostridium tertium by CLSI agar dilution method; type: functional
# Fusobacterium mortiferum [2] = assay: Antibacterial activity against Fusobacterium mortiferum by CLSI agar dilution method; type: functional
# Bacteroides caccae [3] = assay: Antibacterial activity against beta-lactamase producing Bacteroides caccae by CLSI agar dilution method; type: functional
# Clostridium septicum [4] = assay: Antibacterial activity against beta-lactamase producing Clostridium septicum assessed as resistant isolates by CLSI agar dilution method; type: functional
# Clostridium tertium [5] = assay: Antibacterial activity against beta-lactamase producing Clostridium tertium assessed as susceptible isolates by CLSI agar dilution method; type: functional
# [6] = tested on: Peptoniphilus asaccharolyticus; assay: Antibacterial activity against beta-lactamase producing Peptoniphilus asaccharolyticus assessed as susceptible isolates by CLSI agar dilution method; type: functional
# [7] = tested on: Bacteroides thetaiotaomicron; assay: Antibacterial activity against beta-lactamase producing Bacteroides thetaiotaomicron assessed as susceptible isolates by CLSI agar dilution method; type: functional
# Fusobacterium nucleatum [8] = assay: Antibacterial activity against Fusobacterium nucleatum assessed as susceptible isolates by CLSI agar dilution method; type: functional
# Phocaeicola vulgatus [9] = assay: Antibacterial activity against beta-lactamase producing Bacteroides vulgatus by CLSI agar dilution method; type: functional
# Fusobacterium varium [10] = assay: Antibacterial activity against Fusobacterium varium by CLSI agar dilution method; type: functional
# [11] = tested on: Prevotella melaninogenica; assay: Antibacterial activity against Prevotella melaninogenica assessed as resistant isolates by CLSI agar dilution method; type: functional
# Prevotella bivia [12] = assay: Antibacterial activity against Prevotella bivia by CLSI agar dilution method; type: functional
# [13] = tested on: Fusobacterium necrophorum; assay: Antibacterial activity against Fusobacterium necrophorum assessed as susceptible isolates by CLSI agar dilution method; type: functional
# Bacteroides uniformis [14] = assay: Antibacterial activity against beta-lactamase producing Bacteroides uniformis assessed as susceptible isolates by CLSI agar dilution method; type: functional
# Prevotella buccae [15] = assay: Antibacterial activity against Prevotella buccae assessed as susceptible isolates by CLSI agar dilution method; type: functional, Segatella buccae
# Clostridium perfringens = assay: microbe, parasite or virus in culture; type: functional
# Phocaeicola vulgatus [16] = assay: Antibacterial activity against beta-lactamase producing Bacteroides vulgatus assessed as susceptible isolates by CLSI agar dilution method; type: functional
# [17] = tested on: Prevotella melaninogenica; assay: Antibacterial activity against Prevotella melaninogenica assessed as susceptible isolates by CLSI agar dilution method; type: functional
# [18] = tested on: Fusobacterium necrophorum; assay: Antibacterial activity against Fusobacterium necrophorum assessed as resistant isolates by CLSI agar dilution method; type: functional
# [19] = tested on: Fusobacterium necrophorum; assay: Antibacterial activity against Fusobacterium necrophorum by CLSI agar dilution method; type: functional
# Prevotella bivia [20] = assay: Antibacterial activity against Prevotella bivia assessed as resistant isolates by CLSI agar dilution method; type: functional
# Parvimonas micra [21] = assay: Antibacterial activity against beta-lactamase producing Micromonas micros assessed as susceptible isolates by CLSI agar dilution method; type: functional
# Fusobacterium nucleatum [22] = assay: Antibacterial activity against Fusobacterium nucleatum assessed as resistant isolates by CLSI agar dilution method; type: functional
# Bacteroides uniformis [23] = assay: Antibacterial activity against beta-lactamase producing Bacteroides uniformis assessed as resistant isolates by CLSI agar dilution method; type: functional
# Bacteroides caccae [24] = assay: Antibacterial activity against beta-lactamase producing Bacteroides caccae assessed as resistant isolates by CLSI agar dilution method; type: functional
# Clostridium tertium [25] = assay: Antibacterial activity against beta-lactamase producing Clostridium tertium assessed as resistant isolates by CLSI agar dilution method; type: functional
# Prevotella buccae [26] = assay: Antibacterial activity against Prevotella buccae assessed as resistant isolates by CLSI agar dilution method; type: functional, Segatella buccae
# Bacteroides fragilis [27] = assay: Antibacterial activity against Bacteroides fragilis assessed as resistant isolates by CLSI agar dilution method; type: functional
# Fusobacterium varium [28] = assay: Antibacterial activity against Fusobacterium varium assessed as susceptible isolates by CLSI agar dilution method; type: functional
# [29] = tested on: Clostridium paraputrificum; assay: Antibacterial activity against beta-lactamase producing Clostridium paraputrificum by CLSI agar dilution method; type: functional
# Bacteroides uniformis [30] = assay: Antibacterial activity against beta-lactamase producing Bacteroides uniformis by CLSI agar dilution method; type: functional
# Parvimonas micra [31] = assay: Antibacterial activity against beta-lactamase producing Micromonas micros by CLSI agar dilution method; type: functional
# Clostridium septicum [32] = assay: Antibacterial activity against beta-lactamase producing Clostridium septicum assessed as susceptible isolates by CLSI agar dilution method; type: functional
# [33] = tested on: Bacteroides thetaiotaomicron; assay: Antibacterial activity against beta-lactamase producing Bacteroides thetaiotaomicron by CLSI agar dilution method; type: functional
# Prevotella intermedia [34] = assay: Antibacterial activity against Prevotella intermedia assessed as resistant isolates by CLSI agar dilution method; type: functional
# [35] = tested on: Peptostreptococcus anaerobius; assay: Antibacterial activity against beta-lactamase producing Peptostreptococcus anaerobius assessed as resistant isolates by CLSI agar dilution method; type: functional
# Fusobacterium mortiferum [36] = assay: Antibacterial activity against Fusobacterium mortiferum assessed as resistant isolates by CLSI agar dilution method; type: functional
# Prevotella buccae [37] = assay: Antibacterial activity against Prevotella buccae by CLSI agar dilution method; type: functional; conditions: Segatella buccae
# [38] = tested on: Bacteroides thetaiotaomicron; assay: Antibacterial activity against beta-lactamase producing Bacteroides thetaiotaomicron assessed as resistant isolates by CLSI agar dilution method; type: functional
# Prevotella intermedia [39] = assay: Antibacterial activity against Prevotella intermedia assessed as susceptible isolates by CLSI agar dilution method; type: functional
# [40] = tested on: Peptoniphilus asaccharolyticus; assay: Antibacterial activity against beta-lactamase producing Peptoniphilus asaccharolyticus assessed as resistant isolates by CLSI agar dilution method; type: functional
# Clostridium septicum [41] = assay: Antibacterial activity against beta-lactamase producing Clostridium septicum by CLSI agar dilution method; type: functional
# Finegoldia magna [42] = assay: Antibacterial activity against beta-lactamase producing Finegoldia magna assessed as resistant isolates by CLSI agar dilution method; type: functional
# Phocaeicola vulgatus [43] = assay: Antibacterial activity against beta-lactamase producing Bacteroides vulgatus assessed as resistant isolates by CLSI agar dilution method; type: functional
# [44] = tested on: Peptostreptococcus anaerobius; assay: Antibacterial activity against beta-lactamase producing Peptostreptococcus anaerobius by CLSI agar dilution method; type: functional
# Fusobacterium varium [45] = assay: Antibacterial activity against Fusobacterium varium assessed as resistant isolates by CLSI agar dilution method; type: functional
# [46] = tested on: Clostridium paraputrificum; assay: Antibacterial activity against beta-lactamase producing Clostridium paraputrificum assessed as susceptible isolates by CLSI agar dilution method; type: functional
# [47] = tested on: Peptoniphilus asaccharolyticus; assay: Antibacterial activity against beta-lactamase producing Peptoniphilus asaccharolyticus by CLSI agar dilution method; type: functional
# Fusobacterium nucleatum [48] = assay: Antibacterial activity against Fusobacterium nucleatum by CLSI agar dilution method; type: functional
# Bacteroides fragilis [49] = assay: Antibacterial activity against Bacteroides fragilis by CLSI agar dilution method; type: functional
# Parvimonas micra [50] = assay: Antibacterial activity against beta-lactamase producing Micromonas micros assessed as resistant isolates by CLSI agar dilution method; type: functional
# Finegoldia magna [51] = assay: Antibacterial activity against beta-lactamase producing Finegoldia magna by CLSI agar dilution method; type: functional
# Prevotella bivia [52] = assay: Antibacterial activity against Prevotella bivia assessed as susceptible isolates by CLSI agar dilution method; type: functional
# Veillonella parvula = assay: Antibacterial activity against Veillonella parvula by CLSI agar dilution method; type: functional
# Fusobacterium mortiferum [53] = assay: Antibacterial activity against Fusobacterium mortiferum assessed as susceptible isolates by CLSI agar dilution method; type: functional
# Prevotella intermedia [54] = assay: Antibacterial activity against Prevotella intermedia by CLSI agar dilution method; type: functional
# [55] = tested on: Peptostreptococcus anaerobius; assay: Antibacterial activity against beta-lactamase producing Peptostreptococcus anaerobius assessed as susceptible isolates by CLSI agar dilution method; type: functional
# Bacteroides caccae [56] = assay: Antibacterial activity against beta-lactamase producing Bacteroides caccae assessed as susceptible isolates by CLSI agar dilution method; type: functional
# Finegoldia magna [57] = assay: Antibacterial activity against beta-lactamase producing Finegoldia magna assessed as susceptible isolates by CLSI agar dilution method; type: functional
# [58] = tested on: Prevotella melaninogenica; assay: Antibacterial activity against Prevotella melaninogenica by CLSI agar dilution method; type: functional
# [59] = tested on: Clostridium paraputrificum; assay: Antibacterial activity against beta-lactamase producing Clostridium paraputrificum assessed as resistant isolates by CLSI agar dilution method; type: functional
# Bacteroides fragilis [60] = assay: Antibacterial activity against Bacteroides fragilis assessed as susceptible isolates by CLSI agar dilution method; type: functional
smiles,measurement,setting,value
O=C(N[C@H](CO)[C@H](O)c1ccc([N+](=O)[O-])cc1)C(Cl)Cl [CHLORAMPHENICOL],MIC50,Clostridium tertium [1],4 µg/mL
same,MIC90,Clostridium tertium [1],8 µg/mL
same,MIC50,Fusobacterium mortiferum [2],2 µg/mL
same,MIC90,Fusobacterium mortiferum [2],2 µg/mL
same,MIC50,Bacteroides caccae [3],4 µg/mL
same,MIC90,Bacteroides caccae [3],8 µg/mL
same,Activity,Clostridium septicum [4],0%
same,Activity,Clostridium tertium [5],89%
same,Activity,[6],94%
same,Activity,[7],97%
same,Activity,Fusobacterium nucleatum [8],96%
same,MIC50,Phocaeicola vulgatus [9],4 µg/mL
same,MIC90,Phocaeicola vulgatus [9],8 µg/mL
same,MIC50,Fusobacterium varium [10],2 µg/mL
same,MIC90,Fusobacterium varium [10],2 µg/mL
same,Activity,[11],0%
same,MIC50,Prevotella bivia [12],4 µg/mL
same,MIC90,Prevotella bivia [12],8 µg/mL
same,Activity,[13],96%
same,Activity,Bacteroides uniformis [14],96%
same,Activity,Prevotella buccae [15],100%
same,MIC50,Clostridium perfringens,4 µg/mL
same,MIC90,Clostridium perfringens,8 µg/mL
same,Activity,Phocaeicola vulgatus [16],96%
same,Activity,[17],100%
same,Activity,[18],4%
same,MIC50,[19],2 µg/mL
same,MIC90,[19],2 µg/mL
same,Activity,Prevotella bivia [20],0%
same,Activity,Parvimonas micra [21],94%
same,Activity,Fusobacterium nucleatum [22],4%
same,Activity,Bacteroides uniformis [23],4%
same,Activity,Bacteroides caccae [24],4%
same,Activity,Clostridium tertium [25],0%
same,Activity,Prevotella buccae [26],0%
same,Activity,Bacteroides fragilis [27],3%
same,Activity,Fusobacterium varium [28],96%
same,MIC50,[29],4 µg/mL
same,MIC90,[29],8 µg/mL
same,MIC50,Bacteroides uniformis [30],4 µg/mL
same,MIC90,Bacteroides uniformis [30],8 µg/mL
same,MIC,Parvimonas micra [31],1 µg/mL
same,MIC50,Parvimonas micra [31],1 µg/mL
same,MIC90,Parvimonas micra [31],4 µg/mL
same,Activity,Clostridium septicum [32],89%
same,MIC,[33],4 µg/mL
same,MIC50,[33],4 µg/mL
same,MIC90,[33],8 µg/mL
same,Activity,Prevotella intermedia [34],0%
same,Activity,[35],6%
same,Activity,Fusobacterium mortiferum [36],4%
same,MIC50,Prevotella buccae [37],4 µg/mL
same,MIC90,Prevotella buccae [37],8 µg/mL
same,Activity,[38],0%
same,Activity,Prevotella intermedia [39],100%
same,Activity,[40],6%
same,MIC50,Clostridium septicum [41],4 µg/mL
same,MIC90,Clostridium septicum [41],8 µg/mL
same,Activity,Finegoldia magna [42],6%
same,Activity,Phocaeicola vulgatus [43],4%
same,MIC,[44],1 µg/mL
same,MIC50,[44],1 µg/mL
same,MIC90,[44],4 µg/mL
same,Activity,Fusobacterium varium [45],4%
same,Activity,[46],89%
same,MIC,[47],1 µg/mL
same,MIC50,[47],1 µg/mL
same,MIC90,[47],4 µg/mL
same,MIC50,Fusobacterium nucleatum [48],2 µg/mL
same,MIC90,Fusobacterium nucleatum [48],2 µg/mL
same,MIC50,Bacteroides fragilis [49],4 µg/mL
same,MIC90,Bacteroides fragilis [49],8 µg/mL
same,Activity,Parvimonas micra [50],6%
same,MIC,Finegoldia magna [51],1 µg/mL
same,MIC50,Finegoldia magna [51],1 µg/mL
same,MIC90,Finegoldia magna [51],4 µg/mL
same,Activity,Prevotella bivia [52],100%
same,MIC,Veillonella parvula,1 µg/mL
same,Activity,Fusobacterium mortiferum [53],96%
same,MIC50,Prevotella intermedia [54],4 µg/mL
same,MIC90,Prevotella intermedia [54],8 µg/mL
same,Activity,[55],94%
same,Activity,Bacteroides caccae [56],96%
same,Activity,Finegoldia magna [57],94%
same,MIC50,[58],4 µg/mL
same,MIC90,[58],8 µg/mL
same,Activity,[59],0%
same,Activity,Bacteroides fragilis [60],97%
